Results reported in PubChem BioAssay AID1963978 (Molecular Pharmacology Branch, DTP, NCI, 2024).

Test system: 616215-338-R-J1-PDC spheroids with HUVEC/MSC, viability
Test: Anticancer human tumor 616215-338-R-J1-PDC patient-derived colon adenocarcinoma cell line growth inhibition [PI3K]
Settings: for IC50: curve of first compound; for viability, T/C: stronger effect = lower value
Description: Combinatorial screen of targeted agents with the PI3K inhibitors inavolisib, alpelisib, duvelisib, and copanlisib in multi-cell type tumor spheroids
A high-throughput screen of multi-cell type tumor spheroids was designed to identify active combinations of targeted small molecules and PI3K pathway inhibitors. Complex spheroids include a stromal component modeled by human endothelial cells (HUVEC) and fibroblasts modeled by human mesenchymal stem cells (MSCs). The concentration ranges selected for each drug and investigational agent were based upon clinically achievable concentrations if the clinical Cmax of the agent was known.
Compounds. The drugs and investigational agents: inavolisib (NSC800729), alpelisib (NSC765974), duvelisib (NSC772469), copanlisib (NSC816437), ipatasertib (NSC767898), afuresertib (NSC778305), talazoparib (NSC767125), sapanisertib (NSC764658), selumetinib (NSC741078), tovorafenib (DAY101, NSC766906), vemurafenib (NSC761431), ravoxertinib (NSC781343), sotorasib (NSC818433), MRTX1133 (NSC 836407), abemaciclib (NSC 768073), palbociclib (NSC758247), venetoclax (NSC 766270), SY5609 (NSC837396), enzalutamide (NSC755605), and darolutamide (NSC825331), were obtained from the National Cancer Institute (NCI) Developmental Therapeutics Program Chemical Repository. The FDA-approved anticancer drug set is available from the NCI Developmental Therapeutics Program. […] The stock solutions were prepared in dimethyl sulfoxide (DMSO, Sigma-Aldrich, St. Louis, MO, cat. D2650) at 800-fold the tested concentration and stored at -70 degrees C prior to their use. All drugs and investigational agents were tested over a range starting from a high concentration at or near the clinical Cmax and decreasing in half-log increments. If the clinical Cmax for an agent had not been determined, the highest concentration tested was 10 microM.
Cell Culture. All cells were maintained in an incubator at 37 degrees C and 5% CO2 with 95% humidity. The PDC lines were cultured according to standard operating procedures established by the NCI PDMR (https://pdmr.cancer.gov/sops/default.htm). All PDCs were thawed and cultured in Matrigel-coated flasks prepared with a working solution of 1X Ham's F-12 nutrient mix, without supplementation (Invitrogen, Waltham, MA, cat. 11765054), 100 U/mL penicillin-streptomycin (Invitrogen, cat. 15140122), and 2.5% Matrigel (Corning Inc., Corning, NY, cat. 354248) for the first three passages. The 354836-022-R-J1-PDC, 475296-252-R-J1-PDC, and 997726-040-R-J2-PDC lines were cultured in 6A media, which includes advanced DMEM/F-12 (Thermo Fisher Scientific, cat. 12634028), 10 mM HEPES (Thermo Fisher Scientific, cat. 15630080), 1X GlutaMAX supplement (Thermo Fisher Scientific, cat. 35050061), 0.1 mg/mL primocin (InvivoGen, San Diego, CA, cat. ant-pm-2), 10% defined fetal bovine serum, heat inactivated (HyClone Laboratories Inc., Logan, UT, cat. SH30070.03HI), 50% L-WRN conditioned media (ATCC, cat. CRL-3276), 1.25 mM N-Acetyl-L-cysteine (Sigma-Aldrich, cat. A9165), 10 mM nicotinamide (Sigma-Aldrich, cat. N0636), 1X B-27 supplement (Thermo Fisher Scientific, cat. 17504044), 1X N-2 supplement (Thermo Fisher Scientific, cat. 17502048), and 10 microM Y-27632 dihydrochloride (Tocris Bioscience, Bristol, United Kingdom, cat. 1254). The 624824-186-R-J2-PDC line was cultured in 6C/Colon 1B media, which includes all 6A media components plus 50 ng/mL human EGF recombinant protein (Thermo Fisher Scientific, cat. PHG0311). […]

[1] = second compound 0.00316 µM, first compound 0.0316 µM
[2] = second compound 0.00316 µM, first compound 0.1 µM
[3] = second compound 0.00316 µM, first compound 0.316 µM
[4] = second compound 0.00316 µM, first compound 1 µM
[5] = second compound 0.00316 µM, first compound 3.16 µM
[6] = second compound 0.00316 µM, first compound 10 µM
[7] = second compound 0.01 µM, first compound 0.0316 µM
[8] = second compound 0.01 µM, first compound 0.1 µM
[9] = second compound 0.01 µM, first compound 0.316 µM
[10] = second compound 0.01 µM, first compound 1 µM
[11] = second compound 0.01 µM, first compound 3.16 µM
[12] = second compound 0.01 µM, first compound 10 µM
[13] = second compound 0.0316 µM, first compound 0.0316 µM
[14] = second compound 0.0316 µM, first compound 0.1 µM
[15] = second compound 0.0316 µM, first compound 0.316 µM
[16] = second compound 0.0316 µM, first compound 1 µM
[17] = second compound 0.0316 µM, first compound 3.16 µM
[18] = second compound 0.0316 µM, first compound 10 µM
[19] = second compound 0.1 µM, first compound 0.0316 µM
[20] = second compound 0.1 µM, first compound 0.1 µM
[21] = second compound 0.1 µM, first compound 0.316 µM
[22] = second compound 0.1 µM, first compound 1 µM
[23] = second compound 0.1 µM, first compound 3.16 µM
[24] = second compound 0.1 µM, first compound 10 µM
[25] = second compound 0.316 µM, first compound 0.0316 µM
[26] = second compound 0.316 µM, first compound 0.1 µM
[27] = second compound 0.316 µM, first compound 0.316 µM
[28] = second compound 0.316 µM, first compound 1 µM
[29] = second compound 0.316 µM, first compound 3.16 µM
[30] = second compound 0.316 µM, first compound 10 µM
[31] = second compound 1 µM, first compound 0.0316 µM
[32] = second compound 1 µM, first compound 0.1 µM
[33] = second compound 1 µM, first compound 0.316 µM
[34] = second compound 1 µM, first compound 1 µM
[35] = second compound 1 µM, first compound 3.16 µM
[36] = second compound 1 µM, first compound 10 µM
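Further: spheroids exposed to agents for seven days before the viability read.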

CC1(C)CCC(CN2CCN(c3ccc(C(=O)NS(=O)(=O)c4ccc(NCC5CCOCC5)c([N+](=O)[O-])c4)c(Oc4cnc5[nH]ccc5c4)c3)CC2)=C(c2ccc(Cl)cc2)C1 + CC(Nc1ccc2c(c1)OCCn1cc(N3C(=O)OCC3C(F)F)nc1-2)C(N)=O
IC50 (second compound 0.00316 µM): 4.6 µM | IC50 (second compound 0.01 µM): 4.67 µM | IC50 (second compound 0.0316 µM): 5.27 µM | IC50 (second compound 0.1 µM): 5.25 µM | IC50 (second compound 0.316 µM): 5.43 µM | IC50 (second compound 1 µM): 5.18 µM | viability, T/C [1]: 88.6% | viability, T/C [2]: 95.9% | viability, T/C [3]: 104% | viability, T/C [4]: 101% | viability, T/C [5]: 72.8% | viability, T/C [6]: 2.83% | viability, T/C [7]: 92.9% | viability, T/C [8]: 101% | viability, T/C [9]: 99.4% | viability, T/C [10]: 106% | viability, T/C [11]: 74.5% | viability, T/C [12]: 2.57% | viability, T/C [13]: 90.5% | viability, T/C [14]: 94.3% | viability, T/C [15]: 96.6% | viability, T/C [16]: 102% | viability, T/C [17]: 86.9% | viability, T/C [18]: 3.65% | viability, T/C [19]: 105% | viability, T/C [20]: 97.8% | viability, T/C [21]: 102% | viability, T/C [22]: 93.2% | viability, T/C [23]: 87.9% | viability, T/C [24]: 1.87% | viability, T/C [25]: 98.5% | viability, T/C [26]: 86.5% | viability, T/C [27]: 93.5% | viability, T/C [28]: 102% | viability, T/C [29]: 92.5% | viability, T/C [30]: 2.04% | viability, T/C [31]: 107% | viability, T/C [32]: 104% | viability, T/C [33]: 113% | viability, T/C [34]: 103% | viability, T/C [35]: 86.3% | viability, T/C [36]: 1.64%

C[C@@H](NC(=O)c1ncnc(N)c1Cl)c1ncc(C(=O)Nc2cc(C(F)(F)F)c(Cl)cn2)s1 + CC(Nc1ccc2c(c1)OCCn1cc(N3C(=O)OCC3C(F)F)nc1-2)C(N)=O
IC50 (second compound 0.00316 µM): > 10 µM | IC50 (second compound 0.01 µM): > 10 µM | IC50 (second compound 0.0316 µM): > 10 µM | IC50 (second compound 0.1 µM): > 10 µM | IC50 (second compound 0.316 µM): > 10 µM | IC50 (second compound 1 µM): 7.36 µM | viability, T/C [1]: 103% | viability, T/C [2]: 101% | viability, T/C [3]: 107% | viability, T/C [4]: 106% | viability, T/C [5]: 96.5% | viability, T/C [6]: 88.7% | viability, T/C [7]: 102% | viability, T/C [8]: 109% | viability, T/C [9]: 98.1% | viability, T/C [10]: 104% | viability, T/C [11]: 93.3% | viability, T/C [12]: 74.8% | viability, T/C [13]: 95.5% | viability, T/C [14]: 104% | viability, T/C [15]: 101% | viability, T/C [16]: 103% | viability, T/C [17]: 115% | viability, T/C [18]: 66% | viability, T/C [19]: 100% | viability, T/C [20]: 104% | viability, T/C [21]: 115% | viability, T/C [22]: 102% | viability, T/C [23]: 99.5% | viability, T/C [24]: 65.7% | viability, T/C [25]: 121% | viability, T/C [26]: 99% | viability, T/C [27]: 94.8% | viability, T/C [28]: 98.6% | viability, T/C [29]: 85.6% | viability, T/C [30]: 60.6% | viability, T/C [31]: 101% | viability, T/C [32]: 95.7% | viability, T/C [33]: 88.1% | viability, T/C [34]: 98% | viability, T/C [35]: 73.7% | viability, T/C [36]: 41.4%

Cn1ncnc1[C@H]1c2n[nH]c(=O)c3cc(F)cc(c23)N[C@@H]1c1ccc(F)cc1 + CC(Nc1ccc2c(c1)OCCn1cc(N3C(=O)OCC3C(F)F)nc1-2)C(N)=O
IC50 (second compound 0.00316 µM): > 0.1 µM | IC50 (second compound 0.01 µM): > 0.1 µM | IC50 (second compound 0.0316 µM): > 0.1 µM | IC50 (second compound 0.1 µM): > 0.1 µM | IC50 (second compound 0.316 µM): > 0.1 µM | IC50 (second compound 1 µM): > 0.1 µM | viability, T/C (second compound 0.00316 µM, first compound 0.000316 µM): 100% | viability, T/C (second compound 0.00316 µM, first compound 0.001 µM): 90.8% | viability, T/C (second compound 0.00316 µM, first compound 0.00316 µM): 98.3% | viability, T/C (second compound 0.00316 µM, first compound 0.01 µM): 103% | viability, T/C [1]: 88.8% | viability, T/C [2]: 98.4% | viability, T/C (second compound 0.01 µM, first compound 0.000316 µM): 85.9% | viability, T/C (second compound 0.01 µM, first compound 0.001 µM): 90.6% | viability, T/C (second compound 0.01 µM, first compound 0.00316 µM): 91.8% | viability, T/C (second compound 0.01 µM, first compound 0.01 µM): 84% | viability, T/C [7]: 101% | viability, T/C [8]: 90.5% | viability, T/C (second compound 0.0316 µM, first compound 0.000316 µM): 102% | viability, T/C (second compound 0.0316 µM, first compound 0.001 µM): 92.7% | viability, T/C (second compound 0.0316 µM, first compound 0.00316 µM): 89.8% | viability, T/C (second compound 0.0316 µM, first compound 0.01 µM): 97.6% | viability, T/C [13]: 98.5% | viability, T/C [14]: 93.2% | viability, T/C (second compound 0.1 µM, first compound 0.000316 µM): 97.1% | viability, T/C (second compound 0.1 µM, first compound 0.001 µM): 92.4% | viability, T/C (second compound 0.1 µM, first compound 0.00316 µM): 104% | viability, T/C (second compound 0.1 µM, first compound 0.01 µM): 103% | viability, T/C [19]: 94.8% | viability, T/C [20]: 88.9% | viability, T/C (second compound 0.316 µM, first compound 0.000316 µM): 112% | viability, T/C (second compound 0.316 µM, first compound 0.001 µM): 90.6% | viability, T/C (second compound 0.316 µM, first compound 0.00316 µM): 93.5% | viability, T/C (second compound 0.316 µM, first compound 0.01 µM): 99.4% | viability, T/C [25]: 90% | viability, T/C [26]: 88.7% | viability, T/C (second compound 1 µM, first compound 0.000316 µM): 96.2% | viability, T/C (second compound 1 µM, first compound 0.001 µM): 99.3% | viability, T/C (second compound 1 µM, first compound 0.00316 µM): 116% | viability, T/C (second compound 1 µM, first compound 0.01 µM): 89.6% | viability, T/C [31]: 87.7% | viability, T/C [32]: 76.2%
